Columns and labels:
[1] = Metabolic stability in liver microsomes (human); assay type: in vitro ADME; conditions: pH 7.4; Human being liver microsomes 0.5 mg/mL, compound 1 μM, NADPH 1 mM, 37° C.
Experimental: (§1) 1. Source of liver microsomes: human liver microsomes (Corning 452117), CD-1 mouse liver microsomes (XENOTECH M1000)
(§2) 1. Formulation of 100 mM phosphate buffer solution (PBS): 7.098 g of Na2HPO4 was weighed and ultrasonically dissolved in 500 mL of pure water to form Solution A. 3.400 g of KH2PO4 was weighed and ultrasonically dissolved in 250 mL of pure water to form Solution B. Solution A was placed in a stirrer and Solution B was slowly added until the pH value reached 7.4, thus formulating 100 mM PBS buffer solution.
(§3) The reaction system was formulated according to Table 3 below.
(§4) 3. The reaction system was placed in a water bath at 37° C. and pre-incubated for 10 minutes. 40 μL of 10 mM NADPH solution (NADPH was dissolved in 100 mM phosphate buffer solution) was added into the reaction system, and the final concentration of NADPH was 1 mM. 40 μL of Phosphate buffer solution was used instead of the NADPH solution as a negative control. The negative control was used to rule out the influence caused by the chemical stability of the compounds per se.
(§5) 4. The reaction system was added with 4 μL of 100 μM the compound of the present disclosure and Verapamil (the positive control compound) (DMSO as the vehicle), so that the reaction was initiated. The final concentration of the compound was 1 μM.
(§6) 5. At 0.5, 15, 30, 45 and 60 minutes, after being well mixed in a vortex oscillator, 50 μL of the incubated samples were taken out respectively, and the reaction was terminated with ice acetonitrile (4-fold) containing an internal standard. The samples were centrifuged at 3220 g for 45 minutes. After the centrifugation, 90 μL of the supernatants were transferred to a sample plate and mixed well with 90 μL of ultrapure water for LC-MS/MS analysis.
(§7) All data were calculated by Microsoft Excel software. Peak areas were determined from the extracted ion chromatograms. The in-vitro half-life (t1/2) of the parent drug was determined by the linear fitting of the natural logarithm of the elimination percentage of the parent drug versus time.
(§8) The in-vitro half-life (t1/2) was calculated from the slope: […]

[2] = tested on: Daudi cells; test: Inhibition of human Daudi lymphoma cell proliferation (Cell-Titer Glo); assay type: cell-based; conditions: Homo sapiens, 72 h, 3 days incubation, read-out: Anti-Proliferative Activity Against Daudi cells IC50
Summary of the method: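 Daudi cells in RPMI 1640 with 10% FBS were seeded and grown 24 h, then exposed for 3 days (37 °C, 5% CO2) to 10-point 3-fold serial dilutions at 0.25% final DMSO. Viability was read by CellTiter-Glo ATP luminescence, and IC50 was fitted from % inhibition against top/bottom controls.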

[3] = Pharmacokinetic experiment in mouse; assay type: in vivo; conditions: female CB17-SCID mice, oral dose 25 mg/kg; for half-life: mouse, plasma, read-out: Drug Elimination Half-life (converted)
Source text: CB17-SCID mice were purchased from Beijing Vital River Laboratory Animal Technology Co., Ltd.
DMSO, HP-β-CD (hydroxypropyl-β-cyclodextrin), PEG400 (polyethylene glycol 400), and Vitamin E TPGS (D-α-tocopherol polyethylene glycol 1000 succinate) were purchased from Sigma.
Six female CB17-SCID mice (20 g to 30 g, aged 4 to 6 weeks) were divided randomly into two groups, with 3 mice in each group. In Group 1, the compound in a vehicle of an aqueous solution containing 5% dimethyl sulfoxide and 95% hydroxypropyl-β-cyclodextrin (10%, w/v) was administered by intravenous injection via tail vein. In Group 2, a corresponding dose of the compound in a vehicle of an aqueous solution containing 30% polyethylene glycol 400 and 70% D-α-tocopherol polyethylene glycol 1000 succinate (10%, w/v) was orally administered. The animals were fed normally with food and water before experiment. The mice in each group underwent intravenous blood collection before administration and at 0.083 h (intravenous injection group only), 0.25 h, 0.5 h, 1 h, 2 h, 4 h, 6 h, 8 h, and 24 h after administration. The collected whole blood samples were placed in K2EDTA anticoagulation tubes and centrifuged for 5 min (4000 rpm, 4° C.) to collect the plasma for testing.
10 μL of the mouse plasma sample was taken, and 150 μL of acetonitrile solvent (containing the internal standard compound) was added to precipitate protein. After the resultant was vortexed for 0.5 min and centrifuged (4700 rpm, 4° C.) for 15 min, the supernatant was subjected to 2-fold dilution with water containing 0.05% (v/v) FA and was then subjected to quantitative measurement in LC-MS/MS system (AB Sciex Triple Quad 6500+). A calibration standard curve was prepared in CB17-SCID mouse plasma along with quality control samples to determine the plasma concentration. As for a 10× diluted sample, 2 μL of sample was taken and 18 μL of blank plasma was added. After being vortexed for 0.5 min, the mixture was added with 300 μL of acetonitrile solvent (containing the internal standard compound) so as to precipitate protein. The rest of the processing steps were the same as those for the undiluted samples.

[4] = Metabolic stability in liver microsomes (CD-1 mouse); assay type: in vitro ADME; conditions: pH 7.4; CD-1 mouse liver microsomes 0.5 mg/mL, compound 1 μM, NADPH 1 mM, 37° C.
Experimental: as §1, §2, §3, §4, §5, §6, §7, §8

Compound	half-life at 1 μM [1]	IC50 [2]	Drug Exposure [3]	Max. Drug Conc. [3]	Peak Time of Drug Conc. [3]	half-life [3]	half-life at 1 μM [4]
Cc1cc(Nc2ccc(-c3cnc(C4CCC(NC(=O)OC(C)C)CC4)s3)c(S(=N)(=O)C3CC3)c2)n[nH]1 (stereo not drawn) [Example 50, isopropyl trans-N-[4-[5-[2-(cyclopropylsulfonimidoyl)-4-]((5-methyl-1H-pyrazol-3-yl)amino]phenyl]thiazol-2-yl]cyclohexyl]carbamate]	7.92 h	26 nM	18187 ng·h/mL	4076 ng/mL	1 h	4.7 h	6.27 h
CC(C)OC(=O)N[C@H]1CC[C@H](c2ncc(-c3ccc(Nc4cn(C)nn4)cc3S(=N)(=O)C3CC3)s2)CC1 (some centres unmarked) [Example 54]	> 8.33 h	55 nM	47683 ng·h/mL	6698 ng/mL	1 h	3.1 h	> 8.33 h
CC(C)OC(=O)Nc1ccc(-c2cnc([C@H]3CC[C@H](NC(=O)OC(C)C)CC3)s2)c(S(=N)(=O)C2CC2)c1 (stereo partly drawn) [Example 68, isopropyl trans-N-[3-(cyclopropylsulfonimidoyl)-4-[2-[4-(isopropoxycarbonylamino)cyclohexyl]thiazol-5-yl]phenyl]carbamate]	3.12 h	100 nM	156699 ng·h/mL	14798 ng/mL	1.3 h	5 h	2.82 h
CC(C)OC(=O)NC1CCC(c2ncc(-c3ccc(Nc4ccc(F)cn4)cc3S(=N)(=O)C3CC3)s2)CC1 (stereo not drawn) [Example 81, isopropyl trans-N-[4-[5-[2-(cyclopropylsulfonimidoyl)]-4-[(5-fluoro-2-pyridyl)amino]phenyl]thiazol-2-yl]cyclohexyl]carbamate]	5.32 h	40 nM	223309 ng·h/mL	13563 ng/mL	5 h	10 h	3.5 h
Cc1cc(Nc2ccc(-c3cnc([C@H]4CC[C@H](NC(=O)OC(C)C)CC4)s3)c(S(=O)(=O)C3COC3)c2)n[nH]1 [Example 92, isopropyl trans-N-[4-[5-[4-[(5-methyl-1H-pyrazol-3-yl)amino]-2-(oxetan-3-ylsulfonyl)phenyl]thiazol-2-yl]cyclohexyl]carbamate]	6.37 h	4 nM	40080 ng·h/mL	8038 ng/mL	1 h	3.6 h	5.77 h

Reference: patent publication US20230142274A1 (SIMCERE PHARMACEUTICAL CO., LTD., priority 2020, published 2023)
